Data from patent publication US20230416239A1, “COMPOUNDS AND METHODS FOR TREATING A CYTOKINE-MEDIATED DISEASE” (CONSERVATOIRE NATIONAL DES ARTS ET MÉTIERS, priority 2020, published 2023).

How the values were obtained:
[1] = molecular target: TNFa/TNFRI interaction (Homo sapiens, UniProt P01375); assay: TNFa/TNFRI interaction displacement test; type: binding; details: compounds at 50 μM; human TNFRI 100 ng/ml
Method in brief: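 Plates coated overnight at 4° C with human TNFRI (100 ng/ml) and blocked with 2% BSA, then test mixtures were incubated overnight at 4° C. Bound cytokine detected with biotinylated anti-cytokine antibody (2 h, 37° C) and avidin-HRP, read as OD at 450 nm.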

[2] = molecular target: IL-13 (Homo sapiens, UniProt P35225); assay: Immunoassay binding test, IL-13; details: for IC50: IL-13 400 ng/ml, receptor 100 ng/ml, read-out: BINDING IL13 IC50
Method in brief: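 Receptor-coated plates; compounds (100 to 0.78 μM final) preincubated 2 h at 37° C with fixed cytokine, then bound to receptor overnight at 4° C. Bound cytokine detected with biotinylated anti-cytokine antibody and avidin-HRP, OD 450 nm.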

[3] = molecular target: T1, IL-4 (Homo sapiens, UniProt P05112); assay: Immunoassay binding test, IL-4; details: for IC50: IL-4 400 ng/ml, receptor 100 ng/ml, read-out: BINDING IL4 IC50
T1 sequence (P05112 25-153): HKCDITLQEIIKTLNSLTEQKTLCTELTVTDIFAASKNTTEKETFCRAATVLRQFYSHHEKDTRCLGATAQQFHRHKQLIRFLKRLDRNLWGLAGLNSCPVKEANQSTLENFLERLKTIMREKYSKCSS
Method in brief: (§1)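 Compounds (final 100 to 0.78 μM) were preincubated 2 h at 37 °C with a fixed amount of cytokine; for IL-6, IL-6Ra was also present at 200 ng/ml final. Mixtures were then incubated overnight at 4 °C on receptor-coated plates. Bound cytokine was detected with biotinylated anti-cytokine antibody and avidin-HRP, read as OD at 450 nm.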

[4] = molecular target: IL-6 (Homo sapiens, UniProt P05231); assay: Immunoassay binding test, IL-6 (gp130 receptor, IL-6Ra present); details: IL-6Ra 200 ng/ml
Method in brief: as §1

[5] = molecular target: TNFα (Homo sapiens, UniProt P01375); assay: Immunoassay binding test, TNFa; details: compounds 100 to 0.78 μM; TNFα 10 ng/ml, receptor 100 ng/ml; read-out: BINDING TNF IC50
Method in brief: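 ELISA-type binding test: receptor-coated plates blocked with 2% BSA, then cytokine (six-point dilution series) preincubated 2 h at 37 °C and bound overnight at 4 °C. Detection used biotinylated anti-cytokine antibody and avidin-HRP, read as OD at 450 nm. For IL-6, IL-6Ra was present at 200 ng/ml final.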

IL-13, sequence (P35225 25-146, species assumed): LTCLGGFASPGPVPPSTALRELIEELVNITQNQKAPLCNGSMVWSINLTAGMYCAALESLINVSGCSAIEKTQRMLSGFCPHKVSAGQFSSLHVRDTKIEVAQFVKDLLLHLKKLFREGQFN
IL-6, sequence (P05231 30-212, species assumed): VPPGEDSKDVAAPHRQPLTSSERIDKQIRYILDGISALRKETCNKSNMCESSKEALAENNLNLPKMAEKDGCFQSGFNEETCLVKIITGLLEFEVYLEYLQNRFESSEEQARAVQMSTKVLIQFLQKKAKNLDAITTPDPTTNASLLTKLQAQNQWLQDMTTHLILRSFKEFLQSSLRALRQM
TNFa/TNFRI interaction, sequence (P01375 77-233 limits assumed): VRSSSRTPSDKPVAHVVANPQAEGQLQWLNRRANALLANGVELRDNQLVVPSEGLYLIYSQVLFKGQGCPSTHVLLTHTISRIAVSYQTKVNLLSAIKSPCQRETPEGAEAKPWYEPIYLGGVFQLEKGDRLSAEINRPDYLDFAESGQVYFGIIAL
TNFα, sequence (P01375 77-233 limits assumed, species assumed): as the sequence (P01375 77-233 limits assumed) above

Displacement (%) [1] [%] | BINDING IL13 % Neutra at 100 μM [2] [%] | IC50 [2] [µM] | BINDING IL4 % Neutra at 100 μM [3] [%] | IC50 [3] [µM] | BINDING IL6 % Neutra at 100 μM [4] [%] | IC50 [5] [µM] | Compound
87 | 85.1 | > 50 | 93.2 | 6.7 | 0 | 8.8 | O=S(=O)(c1ccccc1)n1cc(CN(CCCCNC2CCCCC2)Cc2cccnc2F)c2ccccc21 [Compound 43, N1-cyclohexyl-N4-((2-fluoropyridin-3-yl)methyl)-N4-((1-(phenylsulfonyl)-1H-indol-3-yl)methyl)butane-1,4-diamine]
114 | 86.5 | > 50 | 90.5 | 7.6 | 0 | 10.4 | O=S(=O)(c1ccccc1)n1cc(CN(CCCCNC2CCCCC2)Cc2cccc(F)n2)c2ccccc21 [Compound 45, N1-cyclohexyl-N4-((6-fluoropyridin-2-yl)methyl)-N4-((1-(phenylsulfonyl)-1H-indol-3-yl)methyl)butane-1,4-diamine]
99 | 93.1 | 17.8 | 93.3 | 5.5 | 0 | 8.9 | O=S(=O)(c1ccccc1)n1cc(CN(CCCCCNC2CCCCC2)Cc2ccnc(F)c2)c2ccccc21 [Compound 47, N1-cyclohexyl-N5-((2-fluoropyridin-4-yl)methyl)-N5-((1-(phenylsulfonyl)-1H-indol-3-yl)methyl)pentane-1,5-diamine]
91 | 89.9 | 17.8 | 91.2 | 7 | 1 | 13.7 | O=S(=O)(c1ccccc1)n1cc(CN(CCCCCNC2CCCCC2)Cc2cccc(F)n2)c2ccccc21 [Compound 48, N1-cyclohexyl-N5-((6-fluoropyridin-2-yl)methyl)-N5-((1-(phenylsulfonyl)-1H-indol-3-yl)methyl)pentane-1,5-diamine]
127 | 88.8 | 23.9 | 89.5 | 5.6 | 0 | 8.2 | CN(CCCCN(Cc1cccnc1F)Cc1cn(S(=O)(=O)c2ccccc2)c2ccccc12)C1CCCCC1 [Compound 49, N1-cyclohexyl-N4-((2-fluoropyridin-3-yl)methyl)-N1-methyl-N4-((1-(phenylsulfonyl)-1H-indol-3-yl)methyl)butane-1,4-diamine]
138 | 90.3 | 26.2 | 90.6 | 6.3 | 0 | 7.2 | CN(CCCCN(Cc1ccnc(F)c1)Cc1cn(S(=O)(=O)c2ccccc2)c2ccccc12)C1CCCCC1 [Compound 50, N1-cyclohexyl-N4-((2-fluoropyridin-4-yl)methyl)-N1-methyl-N4-((1-(phenylsulfonyl)-1H-indol-3-yl)methyl)butane-1,4-diamine]
153 | 89.4 | 25.9 | 87.2 | 6.7 | 0 | 7.9 | CN(CCCCN(Cc1cccc(F)n1)Cc1cn(S(=O)(=O)c2ccccc2)c2ccccc12)C1CCCCC1 [Compound 51, N1-cyclohexyl-N4-((6-fluoropyridin-2-yl)methyl)-N1-methyl-N4-((1-(phenylsulfonyl)-1H-indol-3-yl)methyl)butane-1,4-diamine]
145 | 88.1 | 15.8 | 91.7 | 5 | 0 | 9.1 | CN(CCCCCN(Cc1cccnc1F)Cc1cn(S(=O)(=O)c2ccccc2)c2ccccc12)C1CCCCC1 [Compound 52, N1-cyclohexyl-N5-((2-fluoropyridin-3-yl)methyl)-N1-methyl-N5-((1-(phenylsulfonyl)-1H-indol-3-yl)methyl)pentane-1,5-diamine]
115 | 91.6 | 15.2 | 92.7 | 5.2 | 0 | 8.4 | CN(CCCCCN(Cc1ccnc(F)c1)Cc1cn(S(=O)(=O)c2ccccc2)c2ccccc12)C1CCCCC1 [Compound 53, N1-cyclohexyl-N5-((2-fluoropyridin-4-yl)methyl)-N1-methyl-N5-((1-(phenylsulfonyl)-1H-indol-3-yl)methyl)pentane-1,5-diamine]
85 | 92.5 | 47.4 | 88.4 | 3 | 0 | 11.7 | CN(CCCCCN(Cc1cccc(F)n1)Cc1cn(S(=O)(=O)c2ccccc2)c2ccccc12)C1CCCCC1 [Compound 54, N1-cyclohexyl-N5-((6-fluoropyridin-2-yl)methyl)-N1-methyl-N5-((1-(phenylsulfonyl)-1H-indol-3-yl)methyl)pentane-1,5-diamine]
124 | 93.4 | 10.2 | 91.9 | 2.6 | 0 | 13.2 | O=S(=O)(c1ccccc1)n1cc(CN(CCCCCNC2CCCCC2)Cc2ccc(F)nc2)c2ccccc21 [Compound 56]
126 | 89.1 | 10.4 | 92.5 | 2.1 | 1 | 6.7 | CN(CCCCCN(Cc1ccc(F)nc1)Cc1cn(S(=O)(=O)c2ccccc2)c2ccccc12)C1CCCCC1 [Compound 58]
78 | 59.3 | > 50 | 89.4 | 43.9 | 0 | 35.8 | NCCN(Cc1cccnc1)Cc1cn(S(=O)(=O)c2ccccc2)c2ccccc12 [Compound 59]
2 | 0 | – | 36.4 | – | 0 | > 50 | O=[N+]([O-])c1ccccc1S(=O)(=O)NCCCN(Cc1cccnc1)Cc1cn(S(=O)(=O)c2ccccc2)c2ccccc12 [Compound 60]
105 | 67.9 | 38.5 | 81.5 | 7.8 | 0 | 26.8 | O=S(=O)(c1ccccc1)n1cc(CN(CCCCCNCc2cccnc2F)Cc2cccnc2F)c2ccccc21 [Compound 62]
88 | 55.4 | > 50 | 85.9 | 16 | 0 | 26.5 | NCCCCN(Cc1cccnc1F)Cc1cn(S(=O)(=O)c2ccccc2)c2ccccc12 [Compound 63]
197 | 83.9 | 28.2 | 90.7 | 5.1 | 0 | 8.9 | O=S(=O)(c1ccccc1)n1cc(CN(CCOCCNC2CCCCC2)Cc2cccnc2F)c2ccccc21 [Compound 64, N-(2-(2-(((2-fluoropyridin-3-yl)methyl) ((1-(phenylsulfonyl)-1H-indol-3-yl)methyl)amino)ethoxy)ethyl)cyclohexanaminee]
215 | 85.1 | 36 | 89.1 | 4.7 | 3 | 6.4 | CCN(CCCCN(Cc1cccnc1F)Cc1cn(S(=O)(=O)c2ccccc2)c2ccccc12)C1CCCCC1 [Compound 66, N′-cyclohexyl-N′-ethyl-N^4-((2-fluoropyridin-3-yl)methyl)-N^4-((1-(phenylsulfonyl)-1H-indol-3-yl)methyl)butane-1,4-diamine]
